Source: patent publication US20260166021A1, “POLYMORPHIC FORMS OF A SOLUBLE EPOXIDE HYDROLASE INHIBITOR AND FORMULATIONS THEREOF” (EicOsis, LLC, priority 2022, published 2026)
In brackets after ≈: the same amount, converted by molar mass. Several values for one entry are separate records, joined by “and”; a condition that tells them apart may be missing. Equal values may be shown once. Marks after values point to notes of the source that are not given here.

Columns and labels:
Assay type in all cases: physicochemical
[1] = Equilibrium-solubility screening in solvents and excipients; details: for solubility thermodynamic at 24 h: thermodynamic from solid
Experimental: For these analyses, Form D or Form C was mixed with 0.5 or 1.0 mL of solvents and equilibrated for approximately 24 hours. The mixture was filtered through 0.45 μm centrifuge filters.
As expected, the compound was not easily ionized at physiologically relevant pH. […] In addition, these excipients included surfactants, co-solvents, and lipids which are amenable for use in self-emulsifying drug delivery systems (SEDDS). The XRD pattern of the starting material was maintained for each sample after equilibrium.

[2] = Supersaturation monitoring in PEG 300; details: PEG 300 (0.5 mL)
[3] = Differential scanning calorimetry (DSC): heat of fusion, thermal events
Experimental: Differential scanning calorimetry analyses were performed on each sample “as is.” Unless otherwise specified, samples were weighed in an aluminum pan, covered with a pierced lid, and then crimped and analyzed from 30-300° C. ramped at 10° C./min.
The DSC data were used to determine the heat of fusion for Forms A, B, D, and F, based on their heats of fusion as measured during conversion from Form C.

[4] = Thermal gravimetric analysis (TGA); details: below 150° C.
Experimental: Thermal gravimetric analyses were performed on each sample “as is.” Unless otherwise noted, samples were weighed in an alumina crucible and analyzed from 30-350° C. at 10° C./min.
Form C weight loss at 39° C.-50° C. likely reflected methanol loss.

[5] = Capmul MCM, (medium name cut off)
[6] = Castor Oil, (medium name cut off)

## CC[C@H](C)C(=O)N1CCC(NC(=O)Nc2ccc(OC(F)(F)F)c(F)c2)CC1 [Form D, (S)-1-(3-fluoro-4-(trifluoromethoxy)phenyl)-3-(1-(2-methylbutanoyl)piperidin-4-yl)urea]
[1]; Campul MCM
  Equilibrium Solubility: 56.2 mg/mL
  XRD Pattern At Equilibrium: Form D
[1]; Canola Oil
  XRD Pattern At Equilibrium: Form D
[1]; Canola Oil, oil or lipid
  solubility thermodynamic at 24 h: < 100 µg/mL
[1]; [5]
  Equilibrium Solubility: 24.5 mg/mL
  XRD Pattern At Equilibrium: Form D
[1]; Captex 355
  Equilibrium Solubility: 2.0 mg/mL
  XRD Pattern At Equilibrium: Form D
[1]; Castor Oil
  Equilibrium Solubility: 5.5 mg/mL
  XRD Pattern At Equilibrium: Form D
[1]; [6]
  Equilibrium Solubility: 42.6** mg/mL
  XRD Pattern At Equilibrium: Form D
[1]; Corn Oil
  XRD Pattern At Equilibrium: Form D
[1]; Corn Oil, oil or lipid
  solubility thermodynamic at 24 h: < 100 µg/mL
[1]; DI water
  XRD Pattern At Equilibrium: Form C (minor
  XRD Pattern At Equilibrium, minor form: Form D)
[1]; DI water, water, approximately 24 hours
  solubility thermodynamic at 24 h: < 100 µg/mL
[1]; FaSSIF
  Equilibrium Solubility: 0.2 mg/mL
  XRD Pattern At Equilibrium: Form D
  solubility thermodynamic at 24 h: < 100 µg/mL
[1]; Gelucire 44/14
  Equilibrium Solubility: 37.7** mg/mL
  XRD Pattern At Equilibrium: Form D
[1]; Glycerol
  XRD Pattern At Equilibrium: Form D
[1]; Glycerol, organic solvent or mixture
  solubility thermodynamic at 24 h: < 100 µg/mL
[1]; Intralipid
  Equilibrium Solubility: 0.1 mg/mL
  XRD Pattern At Equilibrium: Form D
[1]; Kolliphor
  Equilibrium Solubility: 1.4 mg/mL
  XRD Pattern At Equilibrium: Form D
[1]; Kolliphor EL
  Equilibrium Solubility: 20.4 mg/mL
  XRD Pattern At Equilibrium: Form D
[1]; Kolliphor HS-
  Equilibrium Solubility: 37.3** mg/mL
  XRD Pattern At Equilibrium: Form D
[1]; Labrafil
  Equilibrium Solubility: 9.6 mg/mL
  XRD Pattern At Equilibrium: Form D
[1]; Labrasol
  Equilibrium Solubility: 21.8 mg/mL
  XRD Pattern At Equilibrium: Form D
[1]; Miglyol 810
  Equilibrium Solubility: 2.0 mg/mL
  XRD Pattern At Equilibrium: Form D
[1]; Miglyol 812
  Equilibrium Solubility: 1.9 mg/mL
  XRD Pattern At Equilibrium: Form D
[1]; NaOH solution, pH 10.0, pH 10, aqueous buffer, pH 10.0 NaOH
  solubility thermodynamic at 24 h: < 100 µg/mL
[1]; Oleic Acid
  Equilibrium Solubility: 9.0 mg/mL
  XRD Pattern At Equilibrium: Form D
[1]; PEG 300, 50%
  Equilibrium Solubility: 0.4 mg/mL and 0.5 mg/mL
  XRD Pattern At Equilibrium: Form D
[1]; PEG 300, 100%
  XRD Pattern At Equilibrium: Form D
[1]; PEG 400, 50%
  XRD Pattern At Equilibrium: Form D
[1]; PEG 400, 50%, aqueous with cosolvent or surfactant or cyclodextrin
  solubility thermodynamic at 24 h: 900 µg/mL (≈ 2220 µM)
[1]; PEG 400, 100%
  Equilibrium Solubility: 17.0 mg/mL
  XRD Pattern At Equilibrium: Form D
[1]; PEG 400, 100%, organic solvent or mixture
  solubility thermodynamic at 24 h: 20100 µg/mL (≈ 49600 µM)
[1]; Peceol
  Equilibrium Solubility: 12.9 mg/mL
  XRD Pattern At Equilibrium: Form D
[1]; Plurol Oleique
  Equilibrium Solubility: 8.7 mg/mL
  XRD Pattern At Equilibrium: Form D
[1]; Propylene
  Equilibrium Solubility: 24.1 mg/mL
  XRD Pattern At Equilibrium: Form D
[1]; SLS, 1x CMC
  XRD Pattern At Equilibrium: Form C
[1]; SLS, 1x CMC, aqueous with cosolvent or surfactant or cyclodextrin
  solubility thermodynamic at 24 h: < 100 µg/mL
[1]; SLS, 5x CMC
  Equilibrium Solubility: 1.2 mg/mL
  XRD Pattern At Equilibrium: Form C
[1]; SLS, 10x CMC
  Equilibrium Solubility: 1.5 mg/mL
  XRD Pattern At Equilibrium: Form C
[1]; SLS, 100x CMC
  Equilibrium Solubility: 2.5 mg/mL
  XRD Pattern At Equilibrium: Form C
[1]; Soybean Oil
  XRD Pattern At Equilibrium: Form D
[1]; Soybean Oil, oil or lipid
  solubility thermodynamic at 24 h: < 100 µg/mL
[1]; Sulfobutylether
  Equilibrium Solubility: 7.9 mg/mL
  XRD Pattern At Equilibrium: Form D
[1]; Transcutol HP
  Equilibrium Solubility: 38.1 mg/mL
  XRD Pattern At Equilibrium: Form D
[1]; Triacetin
  Equilibrium Solubility: 6.4 mg/mL
  XRD Pattern At Equilibrium: Form D
[1]; Tween 80, 1x
  XRD Pattern At Equilibrium: Form C
[1]; Tween 80, 1x, aqueous with cosolvent or surfactant or cyclodextrin
  solubility thermodynamic at 24 h: < 100 µg/mL
[1]; Tween 80, 5x
  XRD Pattern At Equilibrium: Form C
[1]; Tween 80, 5x, aqueous with cosolvent or surfactant or cyclodextrin
  solubility thermodynamic at 24 h: < 100 µg/mL
[1]; Tween 80, 10x
  XRD Pattern At Equilibrium: Form C
[1]; Tween 80, 10x, aqueous with cosolvent or surfactant or cyclodextrin
  solubility thermodynamic at 24 h: < 100 µg/mL
[1]; Tween 80, 100x
  XRD Pattern At Equilibrium: Form C
[1]; Tween 80, 100x, aqueous with cosolvent or surfactant or cyclodextrin
  solubility thermodynamic at 24 h: < 100 µg/mL
[1]; Vitamin E
  Equilibrium Solubility: 40.6** mg/mL
  XRD Pattern At Equilibrium: Form D
[1]; pH 1.0 HCl
  XRD Pattern At Equilibrium: Forms C & D
[1]; pH 1.0 HCl, pH 1, simulated gastric fluid
  solubility thermodynamic at 24 h: < 100 µg/mL
[1]; pH 7.4
  XRD Pattern At Equilibrium: Form D
[1]; pH 7.4 medium (buffer not named), pH 7.4, aqueous buffer, pH 7.4
  solubility thermodynamic at 24 h: < 100 µg/mL
[1]; pH 10.0 NaOH
  XRD Pattern At Equilibrium: Forms C & D
[2]; 100 mg/mL, 1. RT stirring for 1 hr, listed as Pattern D
  Step → Observation: 1. RT stirring for 1 hr → suspension
[2]; 100 mg/mL, 2. 40 C. heating for 0.5 hr, listed as Pattern D
  Step → Observation: 2. 40 C. heating for 0.5 hr → clear solution
[2]; 100 mg/mL, 3. RT storage for ~8 days, listed as Pattern D
  Step → Observation: 3. RT storage for ~8 days → clear solution
[2]; 100 mg/mL, 4. RT storage for ~9 days, listed as Pattern D
  Step → Observation: 4. RT storage for ~9 days → precipitation
[2]; 200 mg/mL, 1. RT stirring for 1 hr
  Step → Observation: 1. RT stirring for 1 hr →suspension
[2]; 200 mg/mL, 2. 40 C. heating for 48 hr, listed as Pattern D
  Step → Observation: 2. 40 C. heating for 48 hr →suspension
[2]; 200 mg/mL, 3. 55 C. heating for <16 hr
  Step → Observation: 3. 55 C. heating for <16 hr →clear solution
[2]; 200 mg/mL, 4. RT storage for <3.5 days
  Step → Observation: 4. RT storage for <3.5 days →precipitation
[2]; 200 mg/mL, 5. 55 C. reheating for overnight
  Step → Observation: 5. 55 C. reheating for overnight →clear solution
[2]; 200 mg/mL, 6. RT storage for overnight
  Step → Observation: 6. RT storage for overnight →precipitation
[3]
  DSC Thermal Events, Endo: melting of pattern D: 143 °C melting of pattern D
[3]; DSC, TABLE 10
  stability rank among Forms A, B, D and F: highest stability
  thermodynamic stability (from heat of fusion): thermodynamically stable
[3]; DSC, scaled-up polymorphs, measured during conversion from Form C
  Heat of fusion: 67.51
[4]
  TGA: wt change: No wt change below
